Measured values as given in EP1698638A1, “Lipopeptides having pharmaceutical activity” (Technische Universität Berlin, priority 2005, dated 2006).

Test system: Jurkat ATCC-TIB-152 (human acute T cell leukemia) celline
Test: cytotoxicity, cell viability by XTT test (1st test)
Format: cell-based
Procedure: Furthermore, the compounds according to the present invention were tested in relation to their activity against cancer cell lines. They were tested for cytotoxicity by determining the IC50-values. The IC50-value was determined by the procedure discrided in Filip P, Anke T, Sterner O, 5-(2'-oxoheptadecyl)-resorcinol and 5-(2'-oxononadecyl)-resorcinol, cytotoxic metabolites from a wood-inhabiting basidiomycete, ZNaturforsch [C]. 2002 Nov-Dec;57(11-12):1004-8. Sample preparation was carried out as follows: 1 st test The compound (hassalidin B) (20 µg) was dissolved in 4 µl DMSO and 16 µl H2O to give a concentration of 1 mg/ml. 1 µl of this solution and 0,5 µl of this solution were used to inoculate 200 µl culture medium each, thus making up a concentration of hassallidin B of 5µg/ml and 2,5 µ/ml, respectively. Thereafter 68 µl H2O were added to 17 µl of the solution of 1 mg/ml hassalidin B to give a concentration of 200 µg/ml, and again 1 µl and 0,5 µl of this solution were used to inoculate 200 µl of culture medium each thus making up a final concentration of hassallidin B of 1 µg/ml and 0,5 µg/ml, respectively. […] Cell viability of cell growing was measured by the XTT test (Boehringer, Mannheim/Roche) as discribed in the product information. […]

Work on hassallidin B yielded an IC50-value of 0.2 µg/mL.
